Data published in paper PMC3401593 (Journal of Pharmaceutical Sciences, 2009).
Marks after values point to notes of the source that are not given here.

Assays:
[1] = system: mdr1a/b (+/+) and mdr1a/b (−/−) mice; conditions: mouse, in vivo
[2] = mouse, in vivo, sc
P-gp = experiment: in vitro; conditions: human, Caco-2, Papp B–A
in vitro = conditions: human, Caco-2

Compound	%MPE, P-gp knockout mice versus wild-type [1]	Area Under the Effect Curve (AUEC), mdr1a/b (+/+) [1]	Area Under the Effect Curve (AUEC), mdr1a/b (−/−) [1]	Time of peak %MPE [1]	Levels in liver and kidney tissues, mdr1a/b (−/−) versus mdr1a/b (+/+) mice [2]	Papp B→A (P-gp)	Papp at 0.2 μCi/mL (in vitro)	AUEC Ratio mdr1a/b (−/−)/mdr1a/b (+/+) [1]
CCC(=O)C(CC(C)N(C)C)(c1ccccc1)c1ccccc1 (centres unmarked) [Methadone, methadone]	significantly higher	1501.85 ± 246.45 % MPE × min	4099.26 ± 488.58 ^a % MPE × min	15 min	no significant differences	19.4 ± 1.01 ×10⁻⁶ cm/s		
OC[C@@H](O)[C@@H](O)[C@H](O)[C@H](O)CO [mannitol]							5.21 ×10⁻⁶ cm/s	
buprenorphine		1943.74 ± 326.81 % MPE × min	2854.93 ± 325.27 % MPE × min	45 min				1.47 ± 0.3
